Laboratory results: US12685313B2, “Agricultural composition comprising kasugamycin” (UPL Corporation Limited, priority 2021, dated 2026)

What was measured:
Fusarium oxysporum = assay: In vitro control of Fusarium oxysporum on PDA medium; assay type: cell-based; conditions: Fusarium oxysporum from potato, dose 1 L/400 L water, 28-30° C., dark, 7 days
Description: A strain of Fusarium oxysporum isolated from potato was cultivated in a solid potato dextrose agar (PDA) medium. The efficacy of the mixture of kasugamycin and laminarin in a 1:1 ratio, and each component individually was tested.
(§1) The in vitro assessment of the products effectiveness was carried out as per the treatments discussed in Table 2. Accordingly, the components in each treatment were dissolved in the PDA culture medium at the dose indicated above. The mixture was homogenized and poured into sterile petri dishes. Explants of 5 mm diameter of the fungus strain Fusarium oxysporum were placed on the petri dishes with PDA. The dishes were incubated inverted, in dark conditions at a temperature of 28-30° C. The evaluation of the inhibition of the fungus was carried out 7 days later.
This effectiveness of all treatments as measured by percent reduction in the Fusarium oxysporum growth, was also evaluated according to Colby's equation as below. […]
If the actual/observed anti-phytopathogenic efficacy of the kasugamycin and laminarin combination against Fusarium oxysporum exceeds the calculated value, then the activity of the combination is super additive, i.e. a synergistic effect exists. In this case, the efficacy which was actually observed must be greater than the value for the expected efficacy (E) calculated from the abovementioned formula.

Alternaria alternata = assay: In vitro control of Alternaria alternata on PDA medium; assay type: cell-based; conditions: Alternaria alternata from potato, dose 1 L/400 L water, 28-30° C., dark, 7 days
Description: A strain of Alternaria alternata isolated from potato was cultivated in a solid potato dextrose agar (PDA) medium. The efficacy of the mixture of kasugamycin and laminarin in a 1:1 ratio, and each component individually was tested.
as §1, with “4.” for “2.”, “in” for “in the”, “Alternaria alternata” for “the fungus strain Fusarium oxysporum”, “inverted” for “inverted,”
The present inventors have calculated the Colby value of the synergistic combination as discussed in Example 4 above.

| Molecule | % Observed control (Fusarium oxysporum) [%] | % Observed control (Alternaria alternata) [%] |
| --- | --- | --- |
| C[C@H]1O[C@H](O[C@H]2[C@H](O)[C@@H](O)[C@@H](O)[C@H](O)[C@@H]2O)[C@@H](N)C[C@@H]1NC(=N)C(=O)O [Kasugamycin] | 48 | 54 |
| Laminarin | 11 | 30 |
